Assay results taken from patent US9169254B2, “Spiroimidazolone derivative” (Chugai Seiyaku Kabushiki Kaisha, priority 2009, dated 2015).

target: T1, human PTH1 receptor (Homo sapiens, UniProt Q03431); test: In vitro cAMP signal activity in HKRK-B7 cells (LLC-PK1 cells overexpressing the human PTH1 receptor); type: cell-based; conditions: 0.1 µM
T1 sequence (Q03431 27-593): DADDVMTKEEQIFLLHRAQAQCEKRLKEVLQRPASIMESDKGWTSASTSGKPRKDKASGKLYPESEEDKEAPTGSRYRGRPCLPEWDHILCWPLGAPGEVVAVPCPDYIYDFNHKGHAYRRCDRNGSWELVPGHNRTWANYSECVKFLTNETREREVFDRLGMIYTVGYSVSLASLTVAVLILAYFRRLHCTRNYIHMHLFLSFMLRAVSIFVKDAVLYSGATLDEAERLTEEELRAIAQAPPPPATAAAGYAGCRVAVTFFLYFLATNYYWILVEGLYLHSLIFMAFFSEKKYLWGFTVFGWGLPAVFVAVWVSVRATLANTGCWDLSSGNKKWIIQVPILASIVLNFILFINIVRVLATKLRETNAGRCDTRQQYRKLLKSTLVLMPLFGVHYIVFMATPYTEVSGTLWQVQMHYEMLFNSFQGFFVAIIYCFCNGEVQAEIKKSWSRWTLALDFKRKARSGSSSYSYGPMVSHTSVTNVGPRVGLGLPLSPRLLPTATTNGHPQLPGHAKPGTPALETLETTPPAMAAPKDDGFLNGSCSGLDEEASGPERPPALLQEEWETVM

SMILES | cAMP production activity (%)
Cc1cc(N(C)C(N)=O)cc(C)c1CC[S@TB4](=O)(=O)N1CCC2(CC1)N=C(c1ccc([Si](C)(C)C)cc1)NC2=O [Compound 1139, 1-(3,5-dimethyl-4-{2-[4-oxo-2-(4-trimethylsilanyl-phenyl)-1,3,8-triaza-spiro[4.5]dec-1-ene-8-sulfonyl]-ethyl}-phenyl)-1-methyl-urea] | 86%

same assay, conditions: HKRK-B7 cells; compound at 1×10^−3 M; cAMP produced as percentage of that produced by hPTH(1-34) at 100 nM

cAMP production activity (%) | SMILES
140% | CC(=O)N(C[C@H](O)CO)c1cc(C)c(CCS(=O)(=O)N2CCC3(CC2)N=C(CCCCCCCCC(F)(F)F)NC3=O)c(C)c1 [Compound 824, N—((S)-2,3-dihydroxy-propyl)-N-(3,5-dimethyl-4-{2-[4-oxo-2-(9,9,9-trifluoro-nonyl)-1,3,8-triaza-spiro[4.5]dec-1-ene-8-sulfonyl]-ethyl}-phenyl)-acetamide]
72% | Cc1cc(C(=O)N2CCC(O)(CF)CC2)cc(C)c1/C=C/S(=O)(=O)N1CCC2(CC1)N=C(c1ccc(F)c(C(F)F)c1)NC2=O [Compound 1256, 2-(3-difluoromethyl-4-fluoro-phenyl)-8-{(E)-2-[4-(4-fluoromethyl-4-hydroxy-piperidine-1-carbonyl)-2,6-dimethyl-phenyl]-ethenesulfonyl}-1,3,8-triaza-spiro[4.5]dec-1-en-4-one]
52% | O=C1NC(C2CCCCC2)=NC12CCN(S(=O)(=O)CCCc1ccccc1O)CC2 [Compound 318, 2-cyclohexyl-8-[3-(2-hydroxy-phenyl)-propane-1-sulfonyl]-1,3,8-triaza-spiro[4.5]dec-1-en-4-one]
36% | CC(C)(C)[C@H]1CC[C@H](C2=NC3(CCN(S(=O)(=O)c4cccc(Cl)c4)CC3)C(=O)N2)CC1 [Compound 26, 2-(4-tert-butyl-cyclohexyl)-8-(3-chloro-benzenesulfonyl)-1,3,8-triaza-spiro[4.5]dec-1-en-4-one]
66% | CCCCC1CCC(C2=NC3(CCN(S(=O)(=O)/C=C/c4ccc(N5C(=O)CNC5=O)cc4C)CC3)C(=O)N2)CC1 (stereo not shown) [Compound 560, 3-(4-{(E)-2-[2-(4-Butyl-cyclohexyl)-4-oxo-1,3,8-triaza-spiro[4.5]dec-1-ene-8-sulfonyl]-vinyl}-3-methyl-phenyl)-imidazolidine-2,4-dione]
68% | Cc1cc(CN2C(=O)CNC2=O)cc(C)c1/C=C/S(=O)(=O)N1CCC2(CC1)N=C(C1CCC(C)CC1)NC2=O (stereo not shown) [Compound 518, 3-(3,5-dimethyl-4-{(E)-2-[2-(4-methyl-cyclohexyl)-4-oxo-1,3,8-triaza-spiro[4.5]dec-1-ene-8-sulfonyl]-vinyl}-benzyl)-imidazolidine-2,4-dione]
106% | Cc1cc(N(C)C(N)=O)cc(C)c1CC[S@TB4](=O)(=O)N1CCC2(CC1)N=C(CCCCCCCCCCCF)NC2=O [Compound 1153, 1-(4-{2-[2-(11-fluoro-undecyl)-4-oxo-1,3,8-triaza-spiro[4.5]dec-1-ene-8-sulfonyl]-ethyl}-3,5-dimethyl-phenyl)-1-methyl-urea]
122% | CC(=O)Nc1ccc(CCS(=O)(=O)N2CCC3(CC2)N=C(c2cccc(C)c2C)NC3=O)c(C)c1 [Compound 146, N-(4-{2-[2-(2,3-dimethyl-phenyl)-4-oxo-1,3,8-triaza-spiro[4.5]dec-1-ene-8-sulfonyl]-ethyl}-3-methyl-phenyl)-acetamide]
38% | O=C1NC(C2CCCCC2)=NC12CCN(S(=O)(=O)/C=C/c1cccc3[nH]ccc13)CC2 [Compound 182, 2-cyclohexyl-8-[(E)-2-(1H-indol-4-yl)-ethenesulfonyl]-1,3,8-triaza-spiro[4.5]dec-1-en-4-one]
76% | CC(=O)N(CCO)c1cc(C)c(CCS(=O)(=O)N2CCC3(CC2)N=C(c2ccc(F)c(C(F)(F)F)c2)NC3=O)c(C)c1 [Compound 794, N-(4-{2-[2-(4-fluoro-3-trifluoromethyl-phenyl)-4-oxo-1,3,8-triaza-spiro[4.5]dec-1-ene-8-sulfonyl]-ethyl}-3,5-dimethyl-phenyl)-N-(2-hydroxy-ethyl)-acetamide]

The remaining lines, values behind:

SMILES | cAMP production activity (%)
O=C1NC(C2CCCCC2)=NC12CCN(S(=O)(=O)/C=C/c1ccc3c(ccn3CCOCCO)c1)CC2 [Compound 487, 2-cyclohexyl-8-((E)-2-{1-[2-(2-hydroxy-ethoxy)-ethyl]-1H-indol-5-yl}-ethenesulfonyl)-1,3,8-triaza-spiro[4.5]dec-1-en-4-one] | 49%
O=C(Nc1ccc(CCS(=O)(=O)N2CCC3(CC2)N=C(C2CCCCC2)NC3=O)c(C(F)(F)F)c1)C1CC1 [Compound 271, cyclopropanecarboxylic acid {4-[2-(2-cyclohexyl-4-oxo-1,3,8-triaza-spiro[4.5]dec-1-ene-8-sulfonyl)-ethyl]-3-trifluoromethyl-phenyl}-amide] | 57%
CCCCCCCCCC1=NC2(CCN(S(=O)(=O)/C=C/c3c(C)cc(N4C(=O)CNC4=O)cc3C)CC2)C(=O)N1 [Compound 539, 3-{3,5-dimethyl-4-[(E)-2-(2-nonyl-4-oxo-1,3,8-triaza-spiro[4.5]dec-1-ene-8-sulfonyl)-vinyl]-phenyl}-imidazolidine-2,4-dione] | 80%
Cc1cc(C(=O)N2CCC(O)(CF)CC2)cc(C)c1/C=C/S(=O)(=O)N1CCC2(CC1)N=C(c1ccc(OCC(F)(F)F)c(C(F)(F)F)c1)NC2=O [Compound 1248, 8-{(E)-2-[4-(4-fluoromethyl-4-hydroxy-piperidine-1-carbonyl)-2,6-dimethyl-phenyl]-ethenesulfonyl}-2-[4-(2,2,2-trifluoro-ethoxy)-3-trifluoromethyl-phenyl]-1,3,8-triaza-spiro[4.5]dec-1-en-4-one] | 81%
Cc1cc(C(=O)N(C)C)ccc1CCS(=O)(=O)N1CCC2(CC1)N=C(C(C)(C)Oc1ccc(Cl)cc1Cl)NC2=O [Compound 175, 4-(2-{2-[1-(2,4-Dichloro-phenoxy)-1-methyl-ethyl]-4-oxo-1,3,8-triaza-spiro[4.5]dec-1-ene-8-sulfonyl}-ethyl)-3,N,N-trimethyl-benzamide] | 73%
Cc1cc(CNC(=O)OC(C)(C)C)ccc1CCS(=O)(=O)N1CCC2(CC1)N=C(C1CCC(CCC(F)(F)F)CC1)NC2=O (stereo not shown) [Compound 928, [3-Methyl-4-(2-{4-oxo-2-[4-(3,3,3-trifluoro-propyl)-cyclohexyl]-1,3,8-triaza-spiro[4.5]dec-1-ene-8-sulfonyl}-ethyl)-benzyl]-carbamic acid tert-butyl ester] | 51%
Cc1cc(N2C(=O)C(C)C[C@@H]2CO)cc(C)c1/C=C/S(=O)(=O)N1CCC2(CC1)N=C(c1cccc(OC(F)(F)F)c1)NC2=O (stereo partly drawn) [Compound 713, 8-{(E)-2-[4-((R)-5-hydroxymethyl-3-methyl-2-oxo-pyrrolidin-1-yl)-2,6-dimethyl-phenyl]-ethenesulfonyl}-2-(3-trifluoromethoxy-phenyl)-1,3,8-triaza-spiro[4.5]dec-1-en-4-one] | 55%
Cc1cc2c(CCS(=O)(=O)N3CCC4(CC3)N=C(C3CCCCC3)NC4=O)cccc2[nH]1 [Compound 745, 2-Cyclohexyl-8-[2-(2-methyl-1H-indol-4-yl)-ethanesulfonyl]-1,3,8-triaza-spiro[4.5]dec-1-en-4-one] | 67%
